Legend:
in vitro = settings: mouse, BaF3 cells
Description: Cytotoxicity against human BAF3 cells assessed as growth inhibition incubated for 72 hrs by CCK8 assay

[1] = tested on: Receptor-type tyrosine-protein kinase FLT3 (Homo sapiens), P36888 [UNDEFINED MUTATION]; settings: BaF3
Description: Inhibition of FLT3 ITD mutant expressed in human BaF3 cells assessed as reduction in cell growth incubated for 72 hrs by CCK8 assay

[2] = tested on: Receptor-type tyrosine-protein kinase FLT3 (Homo sapiens), P36888 [UNDEFINED MUTATION]; settings: MV4-11
Description: Inhibition of FLT3 ITD mutant expressed in human MV4-11 cells assessed as reduction in cell growth incubated for 72 hrs by CCK8 assay

Chain of Receptor-type tyrosine-protein kinase FLT3 (Homo sapiens), P36888 [UNDEFINED MUTATION] (P36888 whole entry, looked up, change not shown): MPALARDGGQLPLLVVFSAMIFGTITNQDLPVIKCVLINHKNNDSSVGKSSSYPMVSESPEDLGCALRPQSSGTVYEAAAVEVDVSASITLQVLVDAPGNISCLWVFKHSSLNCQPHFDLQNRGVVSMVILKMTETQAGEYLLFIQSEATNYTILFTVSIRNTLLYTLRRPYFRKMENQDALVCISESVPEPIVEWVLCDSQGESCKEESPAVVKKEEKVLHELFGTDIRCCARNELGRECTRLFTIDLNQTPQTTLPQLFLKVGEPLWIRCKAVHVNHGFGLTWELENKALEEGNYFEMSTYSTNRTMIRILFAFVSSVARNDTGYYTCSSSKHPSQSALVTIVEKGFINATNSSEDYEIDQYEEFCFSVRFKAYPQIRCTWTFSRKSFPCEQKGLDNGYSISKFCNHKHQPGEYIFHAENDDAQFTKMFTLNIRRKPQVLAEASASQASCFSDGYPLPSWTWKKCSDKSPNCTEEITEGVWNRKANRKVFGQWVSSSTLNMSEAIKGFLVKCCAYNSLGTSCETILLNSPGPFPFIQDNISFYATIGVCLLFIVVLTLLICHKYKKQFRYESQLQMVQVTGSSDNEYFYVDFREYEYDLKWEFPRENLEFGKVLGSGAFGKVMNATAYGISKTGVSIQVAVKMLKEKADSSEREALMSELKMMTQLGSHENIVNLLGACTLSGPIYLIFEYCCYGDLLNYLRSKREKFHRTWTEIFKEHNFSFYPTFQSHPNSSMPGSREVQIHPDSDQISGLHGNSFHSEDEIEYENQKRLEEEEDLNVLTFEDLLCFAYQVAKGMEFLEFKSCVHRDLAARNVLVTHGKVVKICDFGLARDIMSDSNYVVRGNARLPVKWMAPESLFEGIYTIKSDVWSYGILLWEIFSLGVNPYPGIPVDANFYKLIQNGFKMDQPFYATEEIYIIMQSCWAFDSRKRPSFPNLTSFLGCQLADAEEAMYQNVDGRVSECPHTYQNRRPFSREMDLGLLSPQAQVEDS

SMILES | GI50 at 72 h (in vitro) [nM] | GI50 [1] [nM] | GI50 [2] [nM]
CC(C)(C)c1cc(NC(=O)Nc2ccc(-c3cn(-c4ccc(OCCCN5CCOCC5)cc4Cl)nn3)cc2)no1 | > 3000 | 1.5 | 6.2
CC(C)(C)c1cc(NC(=O)Nc2ccc(-c3cn(-c4ccc(OCCN5CCCC5)cc4Cl)nn3)cc2)no1 | 2040 | – | 5
CN(C)CCOc1ccc(-n2cc(-c3ccc(NC(=O)Nc4cc(C(C)(C)C)on4)cc3)nn2)c(Cl)c1 | > 3000 | – | 4
CC(C)(C)c1cc(NC(=O)Nc2ccc(-c3cn(-c4ccc(OCCN5CCCCC5)cc4Cl)nn3)cc2)no1 | 1960 | – | 5.6
Cc1cc(-c2cn(-c3ccc(OCCN4CCOCC4)cc3)nn2)ccc1NC(=O)Nc1cc(C(C)(C)C)on1 | 2160 | 61.5 | 344
CC(C)(C)c1cc(NC(=O)Nc2ccc(-c3cn(-c4ccc(OCCN5CCOCC5)c([N+](=O)[O-])c4)nn3)cc2)no1 | > 3000 | 55.4 | 39.2
CC(C)(C)c1cc(NC(=O)Nc2ccc(-c3cn(-c4ccc(OCCN5CCOCC5)cc4)nn3)cc2F)no1 | > 3000 | 4.2 | 19.6
CC(C)(C)c1cc(NC(=O)Nc2ccc(-c3cn(-c4ccc(OCCN5CCOCC5)cc4C(F)(F)F)nn3)cc2)no1 | > 3000 | 40.5 | 58.6
CC(C)(C)c1cc(NC(=O)Nc2ccc(-c3cn(-c4ccc(OCCN5CCOCC5)cc4Br)nn3)cc2)no1 | 2020 | 2.3 | 5.7
CC(C)(C)c1cc(NC(=O)Nc2ccc(-c3cn(-c4ccc(OCCN5CCOCC5)c(Cl)c4)nn3)cc2)no1 | 1380 | 2.8 | 21.5
CC(C)(C)c1cc(NC(=O)Nc2ccc(-c3cn(-c4ccc(OCCN5CCOCC5)cc4)nn3)cc2Cl)no1 | > 3000 | 165 | 498
CC(C)(C)c1cc(NC(=O)Nc2ccc(-c3cn(-c4ccc(OCCN5CCOCC5)cc4)nn3)cc2)no1 | > 3000 | – | 4
CC(C)(C)c1cc(NC(=O)Nc2ccc(-c3cn(-c4ccc(OCCN5CCOCC5)c(C(F)(F)F)c4)nn3)cc2)no1 | 1520 | 48.5 | 106
COc1cc(-c2cn(-c3ccc(OCCN4CCOCC4)cc3)nn2)ccc1NC(=O)Nc1cc(C(C)(C)C)on1 | 1510 | 851 | 1220
CC(C)(C)c1cc(NC(=O)Nc2ccc(-c3cn(-c4ccc(OCCN5CCOCC5)cc4)nn3)c(Cl)c2)no1 | > 3000 | 3 | 12
CC(C)(C)c1cc(NC(=O)Nc2ccc(-c3cn(-c4ccc(OCCN5CCOCC5)cc4F)nn3)cc2)no1 | > 3000 | – | 5.1
Cc1cc(-n2cc(-c3ccc(NC(=O)Nc4cc(C(C)(C)C)on4)cc3)nn2)ccc1OCCN1CCOCC1 | 1970 | 1 | 7.1
COc1cc(-n2cc(-c3ccc(NC(=O)Nc4cc(C(C)(C)C)on4)cc3)nn2)ccc1OCCN1CCOCC1 | > 3000 | – | 4.8
CC(C)(C)c1cc(NC(=O)Nc2ccc(-c3cn(-c4ccc(OCCN5CCOCC5)cc4)nn3)c(F)c2)no1 | > 3000 | 1.5 | 10.3
